According to a melting point compilation (Tetko et al.; mined from patent text by program, amines drawn as free bases though some values may be those of a salt):

Compound | melting point [°C]
Cc1cn2ccc(N)c(I)c2n1 | 185
CC(=O)OC1CSC(Sc2ccccc2C#N)C(OC(C)=O)C1OC(C)=O (configuration not stated) | 160
Cc1cc(-c2ccc(-c3ccc(OCC4CO4)cc3)cc2)ccc1OCC1CO1 (configuration not stated) | 180
CC(C)NOC(=O)c1n[nH]c2c(=O)[nH]c3cc(Cl)ccc3c(=O)c12 | 224
Nc1nc2c(s1)CCN(C/C=C\c1cccnc1)CC2 | 125 to 126
CC1=C(C#N)C(C)(c2ccccc2)C(C#N)=C(C)N1 | 195 to 196
CCN(CC)CCOc1ccc2cc3ccc(OCCN(CC)CC)cc3nc2c1 | 94 to 95
CC(C)c1nc(C(C)C)c(CNC2CC2)c(-c2ccc(F)cc2)c1CO | 81 to 83
COc1cc2c(cc1N1CCNCC1)OCC2 | 108 to 109
O=C(c1ccc(Cl)c([N+](=O)[O-])c1)c1cnc(NC2CCCCC2)s1 | 194 to 198
CCOCc1nc2c(N)nc(C)c(C)c2n1CCCON=C(C)C | 123 to 125
CCOc1cn(C)cc(-c2ccc(Cl)c(C(F)(F)F)c2)c1=O | 158 to 159
COC(=O)C1NC(c2ccc(Cl)cc2)C/C(=N\OS(C)(=O)=O)C1(Cl)Cl (configuration not stated) | 60 to 62
CN1CCN(c2cccc3c2C[C@H](NC(=O)c2ccc(N4CCOCC4)cc2)CC3)CC1 | 230 to 231
CNC(=S)C1=CC(CF)(CF)Oc2ccc([N+](=O)[O-])cc21 | 134 to 135
CC(=O)Nc1ncc(S(=O)(=O)NC(C)(C)CO)s1 | 206
CC(=O)NCC(=O)N1CC(=O)NC1(C)C | 214 to 215
CCCCSc1ccc(C(O)CNC2CCCCC2)cc1C (configuration not stated) | 136
COc1ccc(Cl)cc1-c1c(N)c(=O)[nH]c2cc(C(F)(F)F)c(Cl)cc12 | 252 to 253
Cc1ccc2cccc(OCc3c(Cl)ccc(S(=O)(=O)N4CCCC4C(=O)NCCCN)c3Cl)c2n1 (configuration not stated) | 130 to 132
CCOC(=O)c1c(C)nn(-c2ccc(Br)cc2)c1C | 71 to 73
Fc1ccc(-c2nc(CI)co2)cc1 | 100 to 102
CS(=O)(=O)c1sccc1S(N)(=O)=O | 242 to 244
CNC(=S)Nc1ccc(NNC=O)cc1 | 176 to 178
CCOC(=O)Cc1csc(NS(C)(=O)=O)n1 | 207 to 208
CSC(C#N)=C1CCN(c2ccc(N3C[C@H](CNC(C)=O)OC3=O)cc2F)CC1 | 205 to 207

Compound | melting point [°C]
O=C1CCC2=C(CCc3cccc(Cl)c32)N1 | 184
C=CCNC(=O)N1CC(Oc2cccc(Cl)c2)C1 | 87 to 89
O=c1[nH]c2ncc(-c3cn[nH]c3)nc2n1CC1CCOCC1 | 238 to 240
COc1cc2c3c(c1)c(=O)c(C(=O)O)cn3CCC2 | 253 to 257
O=C1c2cccc(NCCO)c2OC12CC2 | 74 to 77
CC12C=CCC1C1CC(O)c3cc(O)ccc3C1CC2 (configuration not stated) | 150 to 157
COC(=O)C=Cc1cnc(C(=O)OC)cc1C(=O)OC | 126 to 128
COC(=S)c1ccc(C)c(C2=NOCC2)c1C | 109 to 111
CCOC(=O)C(C)(CCCN(C)CCc1ccc(OC)c(OC)c1)c1ccc(OC)c(OC)c1 (configuration not stated) | 118 to 121
O=C1N(C23CC4CC(CC(C4)C2)C3)CCC1(Cc1ccncc1)Cc1ccncc1 | 164 to 165
CCOC(=N)c1cccc(C)c1OC | 93 to 96
N#Cc1ccc2c(c1)C(c1ccccc1F)=NCC(OP(=O)(N1CCOCC1)N1CCOCC1)=N2 | 194 to 197
COc1ccc(N2CCN(CCN3CC(C)(C)C3)C2=O)cc1Cl | 93 to 95
Nc1ncc(Cc2ccc3c(c2)CCCN3)c(N)n1 | 284 to 287
O=[N+]([O-])c1ccc(C2CCc3c(CCCCCCO)n[nH]c3C2)cc1 (configuration not stated) | 69 to 70
Clc1cc(OC[C@@H]2CCN2)cnc1Cl | 59 to 60
Cc1ccc(S(=O)(=O)ON=C(C#N)c2ccc(F)cc2)cc1 | 129 to 140
Cc1ccc(-c2c(NS(=O)(=O)c3ccc(C(C)(C)C)cc3)ncnc2OCCOc2ccc(N(C)C)cc2)cc1 | 142 to 145
CCCCC(=N)NC(=O)Nc1ccc(N)cc1 | 102 to 103
CN(CCO)c1ccc(C=Cc2ccc(S(C)(=O)=O)cc2)cc1 | 201 to 204
CC(=O)C1(CCC(=O)OC(C)(C)C)CCCCC1=O (configuration not stated) | 47 to 53
Cc1ccc2nc(-c3ccc4c(c3)sc(=N)n4C)sc2c1 | 146 to 148
Cc1ccc(NC(=O)c2cc(Cl)ccc2NCC2CCN(C3CCSCC3)CC2)nc1 | 173 to 176
CC(CN1CCCC1)N1c2ccccc2Sc2ccc(C3=NC4CCCCC4N3)cc21 (racemic) | 109
CC(C)(C)NCC(O)COc1cccc2[nH]c(=S)[nH]c12 (configuration not stated) | 214 to 216

Now from value to compound:

melting point [°C] | Compound
57 to 59 | CCNc1nc2ccc(CCc3ccccn3)cc2o1
103 | O=C(NCCCC(NC(=O)c1ccccc1)C(O)C(F)(F)F)c1ccccc1 (configuration not stated)
150 to 152 | Fc1cc(-c2nc3ccccc3o2)ccc1CBr
186 to 189 | Cn1c(=O)c2c(nc(N3CCC(N)C3)n2Cc2ccccc2C#N)n(C)c1=O (configuration not stated)
150 to 151 | CCCCc1nc2cccc(C)c2c(=O)n1Cc1ccc(C2(C(=O)O)CC=CC2)s1
83 to 85 | Nc1ccc(C(=O)c2ccccc2)cc1F
210 to 244 | Cc1c(O)cc(N2C(=O)c3ccccc3C2=O)cc1C(=O)OCc1ccc([N+](=O)[O-])cc1
80.2 to 84.9 | CCOC(=O)C1C(=O)c2ccccc2OC1C(F)(F)F (configuration not stated)
211 | COC(=O)c1cccc(-c2cnc3c(c2)N(Cc2ccccc2)C(=O)CN3)c1
205 to 207 | CC(CC(=O)NO)c1cccc(Nc2ccccc2-c2n[nH]c(=S)o2)c1Cl (configuration not stated)
49 to 51 | COCCCc1cc(Cl)cc2nc(Cc3ccccc3Cl)oc12
148 to 150 | Cc1cc(C)cc(-c2cn(C)cc(-c3ccccc3)c2=O)c1
231 to 234 | CNC(=O)c1cc(Oc2ccc(NC(=O)Nc3ccc4c(cnn4C)c3)c(F)c2)ccn1
172 | COC(=O)N1CCC(Nc2nc3ccccc3n2Cc2ccc(F)cc2)C(C)C1 (configuration not stated)
103 to 106 | CC(C)(C)OC(=O)Nc1c(F)cccc1OCc1ccccc1
164 | CCc1nc(SC)c(C(=O)O)n1Cc1ccc(-c2ccccc2S(=O)(=O)NC(=O)NCc2ccccc2)cc1
196 to 200 | O=C(O)Cc1nn(C(c2ccccn2)c2ncno2)c(=O)c2ccccc12 (configuration not stated)
129 to 131 | OCCNCCNc1nnc(NCCNCCO)c2cc3ccccc3cc12
144 | COc1cc(-c2nc3ccccc3n2Cc2ccccc2C(F)(F)F)cc(OC)c1OC
119 | O=C(O)Cc1ccc(CNC(=O)C2Cc3ccccc3N2S(=O)(=O)c2ccc(-c3ccc(F)cc3Cl)cc2)cc1 (configuration not stated)
133 to 134 | OCc1cn(-c2ccc(F)c(C(F)F)c2)cn1
224 to 226 | O=C(Nc1ccc(C(=O)N2CCCc3ccccc32)cc1)c1ccc(CO)cc1
187 to 189 | O=C(O)C1CCN(C(=O)OCC2c3ccccc3-c3ccccc32)CC1
164 to 165 | COCc1nc(C(C)(C)O)c(C(=O)O)n1Cc1ccc(-c2ccccc2C(=O)O)cc1
106 to 108 | Cc1cc(SCC#Cc2ccc(Cl)cc2)ccc1OCC(=O)O
153 | Nc1cc(=O)n(Cc2ccccc2Cl)[nH]1

melting point [°C] | Compound
130 | CC(C)(C)OC(=O)COc1cc(NC(=O)OC(C)(C)C)c([N+](=O)[O-])cc1C#Cc1ccccc1
74 to 76 | ON=Cc1ccc(Sc2ccccc2)cc1
247 to 250 | O=Cc1c2ccccc2cc2c(C=O)c3ccccc3cc12
187 to 188 | COc1ccc(C(=O)Nc2cc(NC(=O)c3cccc(NC(C)=O)c3)ccc2C)cc1OC
188 to 189 | CN1CCC(c2cc(-c3ccncc3)c(-c3cccc(C(F)(F)F)c3)nn2)CC1
141 to 149 | CC1(C)Cc2cc(O)c3c(c2C(c2cccc(-c4ccncc4)c2)=N1)CC(C)(C)O3
130 to 132 | O=C(OCc1ccccc1)N1C[C@@H](O)[C@H](Oc2cccc(Cl)c2Cl)C1 (relative stereo)
178 to 179 | COc1c(-c2cc3c(s2)CCC/C3=N\OCc2ccccn2)ccc2c(=O)c(C(=O)O)cn(C3CC3)c12
224 to 226 | CCc1noc(-c2cn(-c3ccc(Cl)cn3)cn2)n1
188 to 190 | CS(=O)(=O)NCc1cccc(-c2nc(=O)c3ccccc3s2)n1
117 to 120 | Cc1c(NC(=O)C(CSC(=O)C(C)(C)C)Cc2ccccc2)cccc1C(=O)O (configuration not stated)
159 to 161 | CCCn1cc(Cc2ccc(C(=O)OC)cc2OC)c2cc(C=C(C)C(=O)O)ccc21
101 to 104 | COC(=O)c1cc(-c2ccc(OC)c(Cl)c2)nn(CC2CC2)c1=O
220 to 222 | O=C1CC(c2cccc(-c3noc(CCCO)n3)c2)=Nc2ccc(-c3ccc(F)cc3)cc2N1
144 to 146 | CN1C(C(=O)O)C(=O)c2ccccc2S1(=O)=O (configuration not stated)
218 | O=C1C(c2ccccc2)=CC2CCCCCC12 (configuration not stated)
130 | O=C(c1ccc(C(F)(F)F)cc1)c1cccc(O)c1
177 to 181 | Cc1ccc(C(=O)NC(CCCCCl)C(=O)O)cc1 (configuration not stated)
66 to 68 | CCOC(=O)c1cc(Cl)c(OCc2ccccc2)c(Cl)c1
116 to 118 | CCCCc1ncc(C(=O)OCC)c(NCc2ccc(-c3ccccc3-c3nnnn3C(c3ccccc3)(c3ccccc3)c3ccccc3)cc2)n1
102 to 104 | Clc1ccc(Cn2ccc3cc(OCc4ccc5ccccc5n4)ccc32)cc1
158 to 159 | Cc1oc(-c2ccco2)nc1COc1ccc(COc2nn(-c3ccccc3)cc2C#N)cc1
230 to 232 | CN1C(=O)c2cccnc2Nc2ncccc21
125 to 126 | CC(OCc1ccc(-c2ccc(Cl)cc2)cc1)(C(=O)O)c1ccccc1 (configuration not stated)
129 to 130 | CCN1C(=O)C(C)(C)C(=O)N(C)c2cc(CN(CCn3ccc4oc(C)cc4c3=O)Cc3ncoc3C)ccc21
